Reference: patent US10030064B2, “Mammalian cell culture processes for protein production” (priority 2009, dated 2018)
Where two headings read alike, the source gives them in different places.

What was measured:
CHO cells [1] = assay: Shake flask CHO culture in serum free medium: viable cell density, viability, growth rate, productivity (Example 3); type: cell-based, Chinese hamster; conditions: for final viability: over 0.1 to 10 μM; for Final VCD / Peak VCD / Viability (final, day 10): added two days after inoculation
Experimental: The CHO cell line used in this study was subcloned from DG44 parental cells and cultured in a proprietary chemically-defined growth medium.
The experiments were carried out in 250-mL shake flasks (VWR international) with starting volumes of 100 mL and initial cell densities of 6×10^5 cells/mL. The cultures were placed on a shaker platform (VWR international) at 150 rpm and maintained at 37° C. and 6% CO2 for ten days. The cultures were sampled daily and the pH adjustment using 1M sodium carbonate, and fed with glucose and glutamine every two days in order to maintain them at certain levels. Cell density and viability were measured off-line a Bioprofile Analyzer 400 (Nova Biomedical Corporation, Waltham, Mass.).
The eluted protein was quantified using a 10-level standard curve.

CHO cells [2] = assay: Preliminary experiment: RU-486 on CHO cell viability, growth and metabolic parameters; type: cell-based, Chinese hamster
From the text: RU-486 is a GR antagonist and often used as a tool drug in many GR related studies.

GILZ = assay: Western blot of GILZ protein in CHO cells; type: cell-based, Chinese hamster; conditions: in the presence of 1 μM RU-486
Experimental: Approximately 10^7 CHO cells were washed with 1× phosphate buffered saline (PBS) solution, lysed with 1 mL of Laemmli sample buffer (Bio-Rad Laboratories, Hercules, Calif.), and then denatured at 90° C. for 5 minutes. […] Membranes were stripped and re-probed with β-actin antibody (Santa Cruz Biotechnology) and an HRP-conjugated anti-mouse secondary antibody. Immunodetection was performed with the enhanced chemiluminescence Western blotting detection system (GE Healthcare UK Limited Little Chalfont, Buckinghamshire, UK) and visualized with a VersaDoc Imaging System (Bio-Rad Laboratories, Hercules, Calif.).
The blot was also reprobed with the beta-actin antibody as a control to assess equivalent gel loading.

glutathione reductase = assay: Western blot of glutathione reductase in CHO cells; type: cell-based, Chinese hamster; conditions: 1 μM RU-486 added one day before 0.1 μM DEX
Experimental: After being washed with 1×PBS, approximately 10^7 CHO cells were lysed with 1 mL of Laemmli sample buffer (Bio-Rad Laboratories) and denatured at 90° C. for 5 minutes. The whole cell lysates were separated on a 4-15% SDS-polyacrylamide gel, blotted to 0.45 μm nitrocellulose membranes (Bio-Rad Laboratories), and probed with primary antibodies and secondary antibody. The primary antibody for detection of glutathione reductase was the monoclonal antibody raised against amino acids 391-510 mapping near the C-terminus of glutathione reductase of human origin (Santa Cruz Biotechnology, Santa Cruz, Calif.). […] The primary antibody used for detection of glucocorticoid receptor was anti-human monoclonal antibody (Santa Cruz Biotechnology, Santa Cruz, Calif.). The secondary antibody was horseradish peroxidase (HRP)-conjugated anti-mouse antibody (Santa Cruz Biotechnology, Santa Cruz, Calif.). Membranes were stripped and re-probed with β-actin antibody (Santa Cruz Biotechnology) and HRP-conjugated secondary antibody. Immunodetection was performed with the enhanced chemiluminescence Western blotting detection system (GE Healthcare) and visualized with VersaDoc Imaging System (Bio-Rad Laboratories).
A Western Blot was performed to detect glutathione reductase expression in the whole cell lysates prepared from the CHO cells treated with various concentrations of DEX. […]

[3] = system: purified IgG-fusion proteins; conditions: Tris-acetate buffer pH 7.5, 37° C., 1 h
Experimental: Reduced glutathione (GSH) at 0, 1 and 3 mM final concentrations was added to Tris-acetate buffered (pH 7.5) solution of purified IgG-fusion proteins, and the mixture of GSH and proteins was incubated at 37° C. for 1 h before SEC-HPLC analysis.
SEC analysis was performed according to the previously published method (Perico et al., 2008) with some modifications. Briefly, the Protein-A purified samples were run on an Agilent 1100 HPLC system (Agilent Technologies, Inc., Palo Alto, Calif.) on Tosoh Bioscience TSK-Gel G3000 SWxl column (7.8 ID×30 cm, 5 μm particles). The mobile phase contained 1× Phosphate Buffered Saline (PBS) at pH 7.4. The flow rate was 0.5 mL/min, and column temperature was controlled at 25° C. The signal was monitored by absorbance at wavelength of 280 nm.
To determine if GSH itself could affect protein aggregation by directly interacting with the proteins, we did in vitro study by adding GSH to Protein-A purified IgG-fusion proteins that were reconstituted in Tris-acetate buffer, and analyzed SEC profiles.

Row | SMILES | final viability (CHO cells [1]) | Final VCD (CHO cells [1]; treatment concentration 0.1 μM) | Peak VCD (CHO cells [1]; treatment concentration 0.1 μM) | Viability (final, day 10) (CHO cells [1]; treatment concentration 0.1 μM) [%] | Final VCD (CHO cells [1]; treatment concentration 1 μM) | Peak VCD (CHO cells [1]; treatment concentration 1 μM) | Viability (final, day 10) (CHO cells [1]; treatment concentration 1 μM) [%] | Final VCD (CHO cells [1]; treatment concentration 10 μM) | Peak VCD (CHO cells [1]; treatment concentration 10 μM) | Viability (final, day 10) (CHO cells [1]; treatment concentration 10 μM) [%] | effect on cell viability and cell growth rate (CHO cells [2]; RU-486 at 10 μM) | effect on CHO cell viability and metabolic parameters (CHO cells [2]; RU-486 concentrations not higher than 1 μM) | DEX-induced overexpression of GILZ protein (GILZ) | up-regulatory effect of DEX on glutathione reductase expression (glutathione reductase) | reduction rate of percentage of high molecular weight species ([3]; 1 mM GSH) [%] | reduction rate of percentage of high molecular weight species ([3]; 3 mM GSH) [%]
1 | C[C@]12C=CC(=O)C=C1CC[C@@H]1[C@@H]2[C@@H](O)C[C@@]2(C)[C@H]1CC[C@]2(O)C(=O)CO [PRD, prednisolone] | 69.4-75.5% | 8.26 ×10^6 cells/mL | 8.99 ×10^6 cells/mL | 69.4 | 8.79 ×10^6 cells/mL | 9.25 ×10^6 cells/mL | 76.8 | 8.27 ×10^6 cells/mL | 8.05 ×10^6 cells/mL | 77.5 |  |  |  |  |  | 
2 | C[C@]12CCC(=O)C=C1CC[C@@H]1[C@@H]2[C@@H](O)C[C@@]2(C)[C@H]1CC[C@]2(O)C(=O)CO [HYC, hydrocortisone] | 60.1-75.5% | 7.86 ×10^6 cells/mL | 10.06 ×10^6 cells/mL | 60.1 | 8.15 ×10^6 cells/mL | 9.51 ×10^6 cells/mL | 65.1 | 7.80 ×10^6 cells/mL | 8.44 ×10^6 cells/mL | 75.5 |  |  |  |  |  | 
3 | CC#C[C@]1(O)CC[C@H]2[C@@H]3CCC4=CC(=O)CCC4=C3[C@@H](c3ccc(N(C)C)cc3)C[C@@]21C [RU-486, mifepristone] |  |  |  |  |  |  |  |  |  |  | significant decrease | did not affect | significantly decreased | attenuated |  | 
4 | N[C@@H](CCC(=O)N[C@@H](CS)C(=O)NCC(=O)O)C(=O)O [GSH, Reduced glutathione] |  |  |  |  |  |  |  |  |  |  |  |  |  |  | 15.3 | 27.3
